Patent US12133855B2, “Lipid-like nanocomplexes and uses thereof” (Trustees of Tufts College, priority 2018, dated 2024)

Tests used:
HeLa-DsRed cells [1] = test: Intracellular delivery of (−30)GFP-Cre/LNP (GFP-positive cells); format: cell-based; details: flow cytometry, 6 h; 25 nM (−30)GFP-Cre; lipidoid 3.3 mg/L
Description: (§1) The final (−30)GFP-Cre protein concentration is 25 nM, and lipidoid concentration is 3.3 mg/L. For the gene recombination functional study, HeLa-DsRed cells were treated with same conditions and the red fluorescence emission from DsRed was analyzed by flow cytometry 24 h after delivery.
A Cre recombinase protein fused to a negatively supercharged GFP variant ((−30)GFP-Cre) was used as a model cargo protein. The (−30)GFP-Cre protein was able to complex with cationic LNPs through electrostatic attraction and other types supramolecular interactions. The cellular uptake of LNPs could be determined by direct analysis of intracellular GFP fluorescent intensity as reported in Wang. HeLa-DsRed cells were used in this study, which expressed red fluorescent DsRed upon Cre-mediated recombination to facilitate the functional study of delivered proteins in the following study.
The (−30)GFP-Cre protein loaded LNPs (GFP-Cre/LNPs) were prepared at first by simply mixing precalculated amount of aqueous solution of LNPs and protein at ambient conditions. For the intracellular delivery, after incubation with GFP-Cre/LNPs nanoparticles for 6 h, the GFP-positive cells were observed using fluorescence microscopy, harvested and counted by flow cytometry. […] The intracellular (−30)GFP-Cre protein delivery efficiencies were further quantified by flow cytometry.

HeLa-DsRed cells [2] = test: Cre-mediated gene recombination (DsRed expression) after (−30)GFP-Cre/LNP delivery; format: cell-based; details: 24 h; 25 nM (−30)GFP-Cre; lipidoid 3.3 mg/L
Description: as §1
The top 12 of LNPs identified through intracellular delivery screening experiments were further tested for gene recombination using HeLa-DsRed model cells. The expression of DsRed from Cre protein mediated gene recombination was analyzed after 24 h of co-incubation with free (−30)GFP-Cre protein and protein loaded LNPs. […] Most of the test LNPs, on the other hand, efficiently delivered (−30)GFP-Cre protein and induced gene recombination, with 14-46% of the cells positive for DsRed.

[3] = Thiol-triggered size variation of OCholB LNPs (DTT, cysteine; DLS); format: physicochemical; details: 10 mM DTT, 24 h
Excerpt: The thiol-trigged degradation and dissociation of the OCholB LNPs were studied by time-dependent DLS measurements and TEM observation. […] The disruption of the vesicle structure is considered to be resulted from the thiol-exchange and disulfide bond cleavage reactions of OCholB lipidoids. We next investigated whether the thiol-containing molecules (e.g. albumin, cysteine, homocysteine, cysteinylglycine, etc.) in the serum may induce the structural disintegration of these disulfide bond-containing LNPs. The stabilities of LNPs in the presence of 20 μM of L-cysteine (Cys), which mimics the free thiols on the small- and macromolecules presented in the serum, were examined. […] While the degrees of size changes vary between lipidoids with different amine head groups, all lipidoids were more responsive to DTT (modeling intracellular conditions) than to Cysteine (modeling conditions in the blood serum).

HeLa-DsRed cells [4] = test: Genome editing efficiency of (−30)GFP-Cre/OCholB LNPs (DsRed+ cells); format: cell-based; details: (−30)GFP-Cre 25, 50 and 100 nM
Excerpt: In this context, the internalization mechanism of the (−30)GFP-Cre/LNPs complexes was studied at first, by introducing different endocytosis inhibitors, i.e., sucrose (clathrin-mediated endocytosis inhibitor), methyl-β-cyclodextrin (M-β-CD, cholesterol-depleting agent), dynasore (dynamin II inhibitor) and nystatin (caveolin-mediated endocytosis inhibitor), following our previously reported procedures. […] Comparing to other combinatorial library studies, it is clear that even loaded with same cargoes and tested against same cell line, different lipidoids with different chemical structures could be internalized through very distinct pathways. Next, the genome-editing efficiencies of (−30)GFP-Cre/LNPs were determined by flow cytometry after 24 h of incubation (with 8 h of (−30)GFP-Cre/LNPs complex exposure). Three different concentrations of protein/lipidoid complexes (25 nM/1.7 μg mL^−1, 50 nM/3.4 μg mL^−1, and 100 nM/6.6 μg mL^−1) were tested for each lipidoid nanoparticle. […] For example, the DsRed^+ cells were recorded as 10.5%/24.9%/88.9%, 13.5%/55.4%/88.8%, and 27.7%/47.8%/94.7% for (−30)GFP-Cre loaded 75-OCholB, 76-OCholB and 77-OCholB, respectively, at the protein concentration of 25, 50 and 100 nM. […] Then, the cytotoxicity profiles of (−30)GFP-Cre/LNPs, (−30)GFP-Cre/Lpf2k and naked (−30)GFP-Cre at different concentrations against HeLa-DsRed cells (8 h of exposure; (−30)GFP-Cre/LNPs=25 nM/1.7 μg mL^−1, 50 nM/3.4 μg mL^−1, and 100 nM/6.6 μg mL^−1) are measured using MTT assay after 24 h of incubation. […] For (−30)GFP-Cre/75-OCholB treated cells, the viabilities were determined to be 95.5%, 91.8% and 83.1%, at the protein concentration of 25, 50 and 100 nM, respectively; the numbers for (−30)GFP-Cre/76-OCholB and (−30)GFP-Cre/77-OCholB are 97.8%/98.2%/97.2 and 100.9%/96.6%/98.6%. […] Meanwhile, the morphology changes of HeLa-DsRed cell treated with different nanoparticle formulations were studied and the results are shown in FIG. 15E. […] Samples found in upper left quadrant are non-toxic and inefficient for delivery; samples in lower left quadrant are toxic and inefficient; samples in lower right quadrant are efficient but toxic; samples in upper right quadrant are non-toxic and efficient, which would be top candidates for further study. It is clear that Lpf2k (shown in dotted purple circle) at high concentration is relatively efficient for genome editing, while also toxic to the target cells. On the other hand, most of the (−30)GFP-Cre loaded OCholB LNPs are almost non-toxic when compared to (−30)GFP-Cre/Lpf2k, similar to naked (−30)GFP-Cre protein. 87-OCholB, 90-OCholB and 304-OCholB (shown in dotted dark blue circle) are less efficient for genome-editing; while high genome editing efficacy and excellent tolerability were achieved by using 75-OCholB, 76-OCholB and 77-OCholB (shown in dotted green circle).

HeLa-DsRed cells [5] = format: cell-based; details: (−30)GFP-Cre 25, 50 and 100 nM
Description: (§2) The internalization kinetics and efficiencies of OCholB LNPs were then studied using NR loaded LNPs and HeLa cells. […] Next, all of the NR delivery efficiencies of eight OCholB LNPs were determined after 8 h of exposure. […] Representative fluorescent images of NR/LNPs (NR/75-OCholB, NR/76-OCholB and NR/77-OCholB) treated HeLa cells are shown in FIG. 12D, from which it is easily observed that NR was delivered into the cells and mainly distributed in cytoplasm, by OCholB LNPs. Next, the internalization of negatively charged hydrophilic fluorescent dye, calcein, was studied. […] Next, the use of OCholB LNPs for the intracellular delivery of macromolecular cargo was explored, using fluorescent recombinant (−30)GFP-Cre protein and HeLa-DsRed cells as the model system. […] Delivery efficiency was tested at a range of (−30)GFP-Cre protein concentrations (25, 50 and 100 nM), with a consistent lipid/protein ratio (i.e., delivery with the final lipid concentration of 1.7, 3.3, and 6.6 μg mL^−1 respectively). 33.2%, 43.8% and 74% of GFP positive (GFP^+) cells were recorded for (−30)GFP-Cre/Lpf2k treated cells with the concentration of (−30)GFP-Cre 25 nM, 50 nM and 100 nM, respectively. […] The typical flow cytometry profiles of naked (−30)GFP-Cre protein and (−30)GFP-Cre loaded nanoparticles ((−30)GFP-Cre/75-OCholB, (−30)GFP-Cre/76-OCholB, (−30)GFP-Cre/77-OCholB and (−30)GFP-Cre/Lpf2k) treated HeLa-DsRed cells were shown in and FIG. 12H ([lipidoid]=6.6 μg mL^−1 and [(−30)GFP-Cre]=100 nM), which is consistent with the statistical results shown in FIG. 12G. Furthermore, the representative fluorescent images from the protein and protein/nanoparticle treated HeLa-DsRed cells are also shown in FIG. 12I.

HeLa cells [6] = test: Internalization of Nile red loaded nanoparticles (NR+ cells); format: cell-based; details: 8 h of exposure
Description: as §2

HeLa cells [7] = test: GFP mRNA delivery (GFP+ cells); format: cell-based; details: LNP/mRNA=10/1; [mRNA]=0.86 μg mL^−1; 24 h exposure
Excerpt: Messenger RNA delivery has great potentials for cancer therapy, protein replacement therapy and neurological disorder treatments.^42 The intracellular delivery of mRNA using OCholB LNPs was studied using GFP mRNA and different cell lines (HeLa, B16F10, HEK-293, NIH/3T3 and Jurkat). The weight ratio of LNP/mRNA was optimized at first using HeLa cells. […] The weight ratio of LNP/mRNA=10/1 was then chose for the following mRNA delivery studies. […] Then the intracellular delivery efficiencies of all fully substituted OCholB LNPs were tested against HeLa cells, and Lpf2k and naked GFP mRNA were used as controls (LNP/mRNA=10/1; [mRNA]=0.86 μg mL^−1; 24 h exposure). […] As to the OCholB LNPs, 75-OCholB (62.0% of GFP^+ cells), 76-OCholB (79.8%), 77-OCholB (73.5%), 78-OCholB (67.1%), 80-OCholB (55.6%), 81-OCholB (51.6%) and 304-OCholB (52.1%) are all determined to be effective. Typical fluorescent images of mRNA/LNPs (mRNA/75-OCholB, mRNA/76-OCholB and mRNA/77-OCholB) treated HeLa cells are shown in FIG. 14C. Comparing to untreated HeLa cells, strong green fluorescent signals were recoded from nanoparticles incubated cells, which is consistent with the flow cytometry data as shown in FIG. 14D. Meanwhile, both 87-OCholB (6.1%) and 90-OCholB (2.5%) are found to be inefficient for GFP mRNA delivery into HeLa cells, which is consistent with the internalization studies using NR (FIG. 12C) and (−30)GFP-Cre protein (FIG. 12F) as the fluorescent reporters.

SMILES	GFP-positive cells (HeLa-DsRed cells [1]) [%]	cells positive for DsRed (protein transfection efficiency) (HeLa-DsRed cells [2]) [%]	increase in averaged hydrodynamic diameter [3] [%]	genome editing efficacy (DsRed^+ cells), overall (HeLa-DsRed cells [4])	(−30)GFP-Cre delivery efficiency (GFP^+ cells), overall (HeLa-DsRed cells [5])	NR^+ cells (HeLa cells [6])	GFP^+ cells (HeLa cells [7]) [%]
CCCCCCCCCCCCCC[Se]CCOC(=O)CCN(CCC(=O)OCC[Se]CCCCCCCCCCCCCC)CCC1CCCN1C (stereo not drawn) [Lipidoid 77-O17Se]	37	31.0	–	–	–	–	–
CC(C)CCCC(C)C1CCC2C3CC=C4CC(OC(=O)NCCSSCCOC(=O)CCN(CCCN(CCO)CCO)CCC(=O)OCCSSCCNC(=O)OC5CCC6(C)C(=CCC7C6CCC6(C)C(C(C)CCCC(C)C)CCC76)C5)CCC4(C)C3CCC12C (stereo not drawn) [Lipidoid 87-OCholB]	–	–	210.3	less efficient at delivery	lowest delivery efficiencies	lowest transfection efficacy, comparable to the untreated control group	6.1
CCCCCCCCCCCCCC[Se]CCOC(=O)CCN(CCC(=O)OCC[Se]CCCCCCCCCCCCCC)CCN(C)C [Lipidoid 78-O17Se]	–	37.8	–	–	–	–	–
CCCCCCCCCCCCCCSCCOC(=O)CCN(CCC(=O)OCCSCCCCCCCCCCCCCC)CCC1CCCN1C (stereo not drawn) [Lipidoid 77-O17S]	–	38.6	–	–	–	–	–
CCCCCCCCCCCCCCSCCOC(=O)CCN(CCCN(C)C)CCC(=O)OCCSCCCCCCCCCCCCCC [Lipidoid 80-O17S]	–	45.6	–	–	–	–	–
CC(C)CCCC(C)C1CCC2C3CC=C4CC(OC(=O)NCCSSCCOC(=O)CCN(CCC(=O)OCCSSCCNC(=O)OC5CCC6(C)C(=CCC7C6CCC6(C)C(C(C)CCCC(C)C)CCC76)C5)CCN5CCOCC5)CCC4(C)C3CCC12C (stereo not drawn) [Lipidoid 90-OCholB]	–	–	179.5	less efficient at delivery	lowest delivery efficiencies	12.9%	2.5
